Earlier results in patent publication US20140080711A1, “SUSPENSION OF PARTICLES COMPRISING CYCLOPROPENE COMPLEXES DISPERSED IN A RESIN MATRIX” (AgroFresh Inc., priority 2012, published 2014).

Tested on: ethylene receptors

CC1=CC1 [Sample 1-MCP, 1-methylcyclopropene]
affinity for the receptor relative to that of ethylene: approximately 10 times
